Measured values taken from ChEMBL document CHEMBL1201862, “PubChem BioAssay data set” (2004).
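Grown in 96-well plates, cells were treated for 48 hours with each compound at five concentrations. Insufficient inhibition: endpoint recorded as highest concentration tested. GI50 = concentration required for 50% inhibition of growth.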 The source made the active and inactive calls. No stated cut-off is given here; in the data, active = GI50 up to about 1.1 µM and inactive = higher.

Key:
Test in all cases: growth of human tumour cells (NCI), 48 h
[1] = system: LOX IMVI
[2] = system: COLO 205
[3] = system: HT-29
[4] = system: EKVX
[5] = system: A549
[6] = system: CAKI-1
[7] = system: MOLT-4
[8] = system: SR
[9] = system: UACC-257
[10] = system: NCI-H226
[11] = system: 786-0
[12] = system: M14
[13] = system: DMS-273
[14] = system: SF-268
[15] = system: NCI-H460
[16] = system: NCI-H522
[17] = system: DU-145
[18] = system: MDA-N
[19] = system: NCI/ADR-RES
[20] = system: BT-549

SMILES	GI50 [1]	GI50 [2]	GI50 [3]	GI50 [4]	GI50 [5]	GI50 [6]	GI50 [7]	GI50 [8]	GI50 [9]	GI50 [10]	GI50 [11]	GI50 [12]	GI50 [13]	GI50 [14]	GI50 [15]	GI50 [16]	GI50 [17]	GI50 [18]	GI50 [19]	GI50 [20]
N#CC1=C(c2ccccc2)C(O)(c2ccccc2)NC1=O (configuration not stated)	> 100 µM (inactive)	> 100 µM (inactive)	41.1 µM (inactive)	> 100 µM (inactive)	> 100 µM (inactive)	> 100 µM (inactive)	> 100 µM (inactive)	44.2 µM (inactive)	> 100 µM (inactive)	51.5 µM (inactive)	> 100 µM (inactive)	52.4 µM (inactive)	> 100 µM (inactive)	> 100 µM (inactive)	58.3 µM (inactive)	–	–	–	–	–
Cc1nc2c(ccc3ncccc32)[nH]1	> 100 µM (inactive)	> 100 µM (inactive)	> 100 µM (inactive)	> 100 µM (inactive)	> 100 µM (inactive)	> 100 µM (inactive)	> 100 µM (inactive)	–	> 100 µM (inactive)	–	> 100 µM (inactive)	> 100 µM (inactive)	> 100 µM (inactive)	> 100 µM (inactive)	> 100 µM (inactive)	> 100 µM (inactive)	–	–	–	–
CC(C)(C)c1cc(COc2c3sc(=S)sc3c(OCc3cc(C(C)(C)C)cc(C(C)(C)C)c3)c3sc(=S)sc23)cc(C(C)(C)C)c1	> 100 µM (inactive)	> 100 µM (inactive)	> 100 µM (inactive)	> 100 µM (inactive)	> 100 µM (inactive)	> 100 µM (inactive)	> 100 µM (inactive)	–	> 100 µM (inactive)	–	> 100 µM (inactive)	> 100 µM (inactive)	> 100 µM (inactive)	–	> 100 µM (inactive)	–	–	–	–	–
NN=C(CC(O)(C(F)(F)Cl)C(F)(F)Cl)CC(O)(C(F)(F)Cl)C(F)(F)Cl	> 10 µM (inactive)	> 10 µM (inactive)	> 10 µM (inactive)	> 10 µM (inactive)	> 10 µM (inactive)	> 10 µM (inactive)	> 10 µM (inactive)	> 10 µM (inactive)	> 10 µM (inactive)	> 10 µM (inactive)	> 10 µM (inactive)	> 10 µM (inactive)	–	> 10 µM (inactive)	> 10 µM (inactive)	> 10 µM (inactive)	> 10 µM (inactive)	> 10 µM (inactive)	> 10 µM (inactive)	> 10 µM (inactive)
O=C1c2ccccc2NC1(c1ccccc1)c1c(-c2ccccc2)[nH]c2ccccc12 (configuration not stated)	–	6.12 µM (inactive)	17.9 µM (inactive)	35.2 µM (inactive)	3.98 µM (inactive)	8.77 µM (inactive)	2.91 µM (inactive)	3.65 µM (inactive)	44 µM (inactive)	–	18.2 µM (inactive)	22.1 µM (inactive)	6.84 µM (inactive)	–	17.5 µM (inactive)	–	–	–	–	–
CC(=N\N=C\c1ccccn1)/C(C)=N/N=C(C)/C(C)=N/N=C(C)/C(C)=N/N=C/c1ccccn1	> 100 µM (inactive)	> 100 µM (inactive)	> 100 µM (inactive)	> 100 µM (inactive)	> 100 µM (inactive)	> 100 µM (inactive)	> 100 µM (inactive)	> 100 µM (inactive)	> 100 µM (inactive)	> 100 µM (inactive)	> 100 µM (inactive)	> 100 µM (inactive)	–	> 100 µM (inactive)	> 100 µM (inactive)	> 100 µM (inactive)	> 100 µM (inactive)	> 100 µM (inactive)	> 100 µM (inactive)	> 100 µM (inactive)
O=C(O)C1C2CC3C(OC(=O)C31)C2Br (configuration not stated)	> 100 µM (inactive)	> 100 µM (inactive)	> 100 µM (inactive)	> 100 µM (inactive)	> 100 µM (inactive)	> 100 µM (inactive)	> 39.5 µM (inactive)	0.432 µM (active)	> 100 µM (inactive)	> 100 µM (inactive)	> 100 µM (inactive)	> 100 µM (inactive)	–	> 100 µM (inactive)	> 100 µM (inactive)	> 100 µM (inactive)	> 100 µM (inactive)	> 100 µM (inactive)	> 100 µM (inactive)	> 100 µM (inactive)
c1ccc2c(c1)C1CCCCCC21N1CCOCC1 (configuration not stated)	> 100 µM (inactive)	> 100 µM (inactive)	86.3 µM (inactive)	–	> 100 µM (inactive)	> 100 µM (inactive)	32.6 µM (inactive)	–	> 100 µM (inactive)	92.9 µM (inactive)	> 100 µM (inactive)	98.2 µM (inactive)	67.1 µM (inactive)	> 100 µM (inactive)	69 µM (inactive)	52.4 µM (inactive)	–	–	–	–
Cc1c(C)c(S(=O)(=O)N(CCCCCON)OCCCN)c(C)c2c1OC(C)(C)CC2	9.73 µM (inactive)	3.48 µM (inactive)	9.89 µM (inactive)	12.3 µM (inactive)	13.4 µM (inactive)	6.41 µM (inactive)	4.94 µM (inactive)	2.71 µM (inactive)	15.9 µM (inactive)	17.9 µM (inactive)	16.7 µM (inactive)	7 µM (inactive)	–	16.8 µM (inactive)	9.93 µM (inactive)	17.7 µM (inactive)	0.883 µM (active)	14.3 µM (inactive)	15.9 µM (inactive)	15.5 µM (inactive)
COC12CCC(=O)C=C1c1ccccc1N2C(C)=O (configuration not stated)	–	> 100 µM (inactive)	> 100 µM (inactive)	> 100 µM (inactive)	> 100 µM (inactive)	> 100 µM (inactive)	> 100 µM (inactive)	> 100 µM (inactive)	> 100 µM (inactive)	–	> 100 µM (inactive)	–	> 100 µM (inactive)	–	> 100 µM (inactive)	–	–	–	–	–
COc1ccc(-c2cc(-c3ccc(Nc4ccnc5cc(C(F)(F)F)ccc45)cc3)[nH]c(=O)c2C#N)c2ccccc12	24.2 µM (inactive)	> 37.7 µM (inactive)	> 25.7 µM (inactive)	> 100 µM (inactive)	> 100 µM (inactive)	> 100 µM (inactive)	> 100 µM (inactive)	12.6 µM (inactive)	> 100 µM (inactive)	> 55.3 µM (inactive)	21 µM (inactive)	> 42.7 µM (inactive)	–	38.1 µM (inactive)	> 100 µM (inactive)	> 100 µM (inactive)	> 43.8 µM (inactive)	> 38.4 µM (inactive)	> 100 µM (inactive)	> 58.5 µM (inactive)
OCC1OC(n2cnc3c(/C=C(/O)c4ccccc4)ncnc32)C(O)C1O (configuration not stated)	1.63 µM (inactive)	0.944 µM (active)	3.1 µM (inactive)	19.1 µM (inactive)	1.29 µM (inactive)	3.11 µM (inactive)	1.71 µM (inactive)	1.35 µM (inactive)	3.89 µM (inactive)	5.38 µM (inactive)	2.94 µM (inactive)	0.813 µM (active)	–	5.78 µM (inactive)	0.594 µM (active)	2.16 µM (inactive)	1.61 µM (inactive)	4.89 µM (inactive)	2.11 µM (inactive)	6.08 µM (inactive)
CC(=O)O[C@H]1CC[C@@]2(C)C(=CC[C@@H]3[C@@H]2CC[C@]2(C)c4nc(Cl)ccc4C[C@@H]32)C1	40.9 µM (inactive)	39.1 µM (inactive)	36.8 µM (inactive)	25.2 µM (inactive)	52 µM (inactive)	66.4 µM (inactive)	30.8 µM (inactive)	37 µM (inactive)	32.9 µM (inactive)	> 100 µM (inactive)	32 µM (inactive)	60 µM (inactive)	–	49.8 µM (inactive)	33.4 µM (inactive)	24.5 µM (inactive)	80.4 µM (inactive)	29.3 µM (inactive)	47.4 µM (inactive)	15.2 µM (inactive)
CC1CC2(CC[C@@H]1O)OCCO2 (some centres not stated)	> 100 µM (inactive)	> 100 µM (inactive)	> 100 µM (inactive)	> 100 µM (inactive)	> 100 µM (inactive)	> 100 µM (inactive)	> 100 µM (inactive)	–	> 100 µM (inactive)	–	> 100 µM (inactive)	> 100 µM (inactive)	> 100 µM (inactive)	–	> 100 µM (inactive)	> 100 µM (inactive)	–	–	–	–
CN(C)/C=N/S(=O)(=O)c1nn2c(C=O)c(-c3ccc(-c4ccc([N+](=O)[O-])cc4)o3)nc2s1	2.33 µM (inactive)	1.99 µM (inactive)	0.611 µM (active)	5.07 µM (inactive)	3.62 µM (inactive)	0.308 µM (active)	1.19 µM (inactive)	0.883 µM (active)	7.41 µM (inactive)	20.5 µM (inactive)	1.07 µM (active)	2.12 µM (inactive)	–	4.61 µM (inactive)	1.63 µM (inactive)	1.38 µM (inactive)	3.64 µM (inactive)	1.1 µM (active)	8.15 µM (inactive)	1.72 µM (inactive)
CC1(C)CC2=C(Sc3ccccc3N2)C(=O)C1C(=O)C(=O)Nc1cc(Cl)ccc1Cl (configuration not stated)	> 100 µM (inactive)	> 100 µM (inactive)	77.6 µM (inactive)	> 100 µM (inactive)	> 100 µM (inactive)	> 100 µM (inactive)	60 µM (inactive)	> 100 µM (inactive)	> 100 µM (inactive)	> 100 µM (inactive)	> 100 µM (inactive)	> 100 µM (inactive)	–	> 100 µM (inactive)	14.9 µM (inactive)	> 100 µM (inactive)	> 100 µM (inactive)	> 100 µM (inactive)	63.2 µM (inactive)	> 100 µM (inactive)
